Measured values taken from patent publication US20250135006A1, “AMPHIPHILIC TLR7/8 ADJUVANTS AND USES THEREOF” (Pfizer Inc., priority 2023, published 2025).

Molecular target: T1, human toll like receptor 8 (hTLR8) (Homo sapiens, UniProt Q9NR97)
T1 construct: host or cells: HEK293 (HEK-Blue hTLR8)
T1 sequence (Q9NR97 27-1041): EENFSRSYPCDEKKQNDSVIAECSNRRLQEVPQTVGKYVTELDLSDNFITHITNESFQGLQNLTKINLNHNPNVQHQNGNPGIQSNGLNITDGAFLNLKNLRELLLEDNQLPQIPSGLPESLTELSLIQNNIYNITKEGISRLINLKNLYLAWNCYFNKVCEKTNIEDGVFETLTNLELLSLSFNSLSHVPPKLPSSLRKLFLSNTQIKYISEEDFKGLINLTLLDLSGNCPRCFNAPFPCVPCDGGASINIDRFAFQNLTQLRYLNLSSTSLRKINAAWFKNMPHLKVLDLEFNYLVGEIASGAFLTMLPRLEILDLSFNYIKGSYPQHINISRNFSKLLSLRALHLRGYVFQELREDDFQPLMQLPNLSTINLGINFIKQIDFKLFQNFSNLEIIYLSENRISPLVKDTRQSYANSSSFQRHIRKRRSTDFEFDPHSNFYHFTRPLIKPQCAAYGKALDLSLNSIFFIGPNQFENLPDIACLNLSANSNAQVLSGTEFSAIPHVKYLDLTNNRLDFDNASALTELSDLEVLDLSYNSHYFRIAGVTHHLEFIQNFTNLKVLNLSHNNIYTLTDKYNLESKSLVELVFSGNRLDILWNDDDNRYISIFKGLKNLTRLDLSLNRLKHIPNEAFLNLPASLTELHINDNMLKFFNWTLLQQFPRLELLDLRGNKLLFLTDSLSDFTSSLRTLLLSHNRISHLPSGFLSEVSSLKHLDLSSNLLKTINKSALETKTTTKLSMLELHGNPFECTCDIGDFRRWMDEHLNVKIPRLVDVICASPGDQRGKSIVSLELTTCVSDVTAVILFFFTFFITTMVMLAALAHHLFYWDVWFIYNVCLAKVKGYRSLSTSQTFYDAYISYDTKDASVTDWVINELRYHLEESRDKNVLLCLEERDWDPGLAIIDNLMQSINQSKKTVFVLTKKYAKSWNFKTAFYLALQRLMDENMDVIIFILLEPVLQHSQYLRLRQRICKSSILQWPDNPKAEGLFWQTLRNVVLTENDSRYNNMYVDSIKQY
Assay: hTLR8 in-vitro functional assay (HEK-Blue hTLR8 SEAP reporter)
Type: cell-based
Settings: HEK-Blue hTLR8 cells, overnight incubation

## CCCCc1nc2c(N)nc3cc(CCCN4CCN(C(=O)CCOCCOCCOCCOCCOCCOCCOCCOCCOCCOCCOCCOCCOCCOCCOCCOCCOCCOCCOCCOCCOCCOCCOCCOCCNC(=O)CCOCCOCCOCCOCCNC(=O)CCCOc5c(C)c(C)c6c(c5C)CC[C@@](C)(CCC[C@H](C)CCC[C@H](C)CCCC(C)C)O6)CC4)ccc3c2n1CC(C)(CO)CO [Compound 2, N-{75-[4-(3-{4-amino-2-butyl-1-[3-hydroxy-2-(hydroxymethyl)-2-methylpropyl]-1H-imidazo[4,5-c]quinolin-7-yl}propyl)piperazin-1-yl]-75-oxo-3,6,9,12,15,18,21,24,27,30,33,36,39,42,45,48,51,54,57,60,63,66,69,72-tetracosaoxapentaheptacont-1-yl}-17-oxo-20-({(2R)-2,5,7,8-tetramethyl-2-[(4R,8R)-4,8,12-trimethyltridecyl]-3,4-dihydro-2H-chromen-6-yl}oxy)-4,7,10,13-tetraoxa-16-azaicosan-1-amide]
  EC50: 5.03 µM
